Measurements as given in patent US12318357B2, “Small molecule drugs and related methods for treatment of diseases related to TDP-43, alpha-synuclein, huntingtin's protein and tau protein oligomer formation” (ACELOT, INC., priority 2019, dated 2025).
Entries after “also recorded” stand apart in the source; their conditions may differ. Like-named read-outs stand apart in the source and are kept apart here.

How the values were obtained:
[1] = test system: TDP43 granules in U2OS cells stably expressing tGFP tagged human TDP-43; test: TDP43 granule formation inhibition in TDP43-tGFP-U2OS cells after sodium arsenite treatment; format: cell-based; conditions: for TDP43 granule formation inhibition in cells after arsenite treatment (overall result): 24 h pre-incubation, 1-10 μM, 250 μM sodium arsenite 120 min
Source text: Amyotrophic lateral sclerosis (ALS) is one of the most common degenerative diseases of the motor neuron system. TDP-43 related pathologies seem to be a dominant type of pathologies across sporadic ALS types. A novel fluorescence cell-based assay for High Content Screening that allows the quantification of pathological TDP43 granules has been developed. In this work we have used this model to screen the effects of three compounds, using Riluzole as a positive control. The TDP-43 U2OS cell line contains U2OS cells stably expressing the tGFP tagged human TDP-43. This cell line has been designed to test compounds and to analyse their capability to modulate TDP43 granule formation after cytotoxic stress induction. The cell line was generated in Innoprot. It is a stable cell line that express the LacRI repressor protein and the TDP43-turboGFP protein. The cell line was generated using the pCMVLacRI-Hygro plasmid (Hygromycin resistance) and the pPuro-TDP43tGFP plasmid (that confers the puromycin resistance). The cell line was generated transfecting these plasmids with Lipofectamine LTX reagent, and the transfected cells were diluted until critical dilution. The negative control show a diffuse nuclear distribution of the fluorescence, but after sodium arsenite treatment the phenotype turns into a cytosolic vesicular pattern corresponding to stress granules and into an intensive nuclear granules pattern. The aim of this work was to assess different doses of 11 compounds.
The objective of these experiments was to screen the protective effect of 11 compounds and reference compound (arimoclomol) against cellular oxidative stress induced by sodium arsenite (i.e., arsenite). The compounds have been tested at 10 μM, […], 2 μM and 1 μM each, and appropriate controls (vehicle, arsenite and controls) have been included as well. The compound tested were the following: 101, 102, 103, 104, 105, 106, 107, 201, 202, 203 and 204.
Each compound was prepared in Optimem. In the final dilution, DMSO was added in order to obtain a final DMSO concentration of 0.1$, the same that the reference compound (arimoclomol). All compounds were tested at 0.1% DMSO (vehicle) final concentration.
Day 1 (Thursday). Recombinant TDP43-tGFP-U2OS cell line was thawed (2×10^6 cells per T75). Day 2 (Friday). After 24 hours, Cells were maintained in DMEM-F12 supplemented with 10% FBS at 37° C. in a humidified 5% CO2 atmosphere. Day 5 (Monday). Cells were plated in coated 96-well plates with a number of 10.000 cells (+/−2000 cells) per well. Cells were maintained in DMEM-F12 medium supplemented with 10% FBS for 24 h at 37° C. in a humidified 5% CO2 atmosphere. Day 6 (Tuesday). Cells were incubated with test compounds and IPTG 1 mM in triplicate assays during 24 hours. Day 7 (Wednesday). Culture medium was replaced, and cells were treated with 250 μM of sodium arsenite during 120 min and TDP-43 globs formation was quantified in both cell cytoplasm and cell nucleus. The TDP43 granules formation was quantified after the formaldehyde fixation (3.7 wt. %, 20 minutes) of the cells. The nuclei were stained using DAPI (2 μg/ml) and the fluorescence was measured using a Cell Insight High-Content Bioimager from Thermofisher. To detect the DAPI, the filters used were 380/10 and 460/10 nm for excitation and emission, respectively and to detect the TDP43 granules, the filters were 488/20 and 520/20 nm, respectively. The images were obtained with an objective of 20×, taking 9 pictures of each well. Cell quantification was performed delimitating the region of interest of the nuclei (stained with DAPI) and after quantification, the average of each triplicate was performed. Granule quantification was also performed using the Thermofisher Cellomics Scan Viewer 6.1.1. Spot detector application from Cell Software delimitated 2 regions of interest, the nuclei and cytosol. This software application quantified the number of granules per nuclei and the average granule number per cytosol of each well was calculated. […]

TDP-43307-319 WT peptide [2] = biological target: T1, TDP-43307-319 WT peptide (Homo sapiens, UniProt Q13148); test: IM-MS monitoring of oligomerization of TDP-43307-319 (recovery study on aggregated peptide); format: biochemical; conditions: for oligomer distribution initially after addition of inhibitor to aggregated WT peptide: initial time point; for remodeling of developed higher-order oligomers and prevention of re-formation (overall): recovery study on aggregated peptide; for rate of redistribution relative to the other inhibitors: recovery study, comparison among molecules; for oligomer distribution a week after single treatment: one week
T1 construct: TDP-43307-319 WT peptide 307 [MGGGMNF GAFSIN]319; made in house; host or cells: chemical synthesis (Fmoc solid phase peptide synthesis), not recombinant
Method: Peptide Synthesis and Purification. TDP-43307-319 WT peptide 307 [MGGGMNF GAFSIN]319 was synthesized using standard 9-fluorenylmethoxycarbonyl (Fmoc) chemistry using 2-(1H-benzotriazol-1-yl)-1,1,3,3-tetramethyluronium hexafluorophosphate/hydroxy-benzotriazole (HBTU/HOBT) manual solid phase peptide synthesis. The peptide was amidated with an Fmoc-Rink Amide resin (Anaspec). The peptide was cleaved from the resin using 94% TFA, 5% triisopropylsilane, and 1% phenol for 2 h at 295 K. The crude peptide was purified by reverse phase high performance liquid chromatography (RP-HPLC) on a semipreparative C18 column (Phenomenex) using gradients of water [0.1% (v/v) TFA] and acetonitrile [0.1% (v/v) TFA]. The peptide was dissolved in 6 M guanidine hydrochloride (GdnHCl) prior to injection due to its insolubility in water and acetonitrile. The peptide purity was >93% as determined by analytical RP-HPLC. The molecular mass of the peptide was verified by ESI mass spectrometry.
IM-MS was utilized to monitor the oligomerization of TDP-43307-319 in the presence of molecules AC0107, AC0105, AC0102 and AC0201. The ability of IMMS to separate species of a specific [m]z+ (m=mass, z=charge) that contains different [n]z+ (n=oligomer number) by measuring the arrival time distributions (ATDs) yields oligomeric distributions. Samples were prepared as mentioned previously and incubated at room temperature under quiescent conditions.
The TDP-43307-319 WT peptide was dissolved in 10 mM ammonium acetate (pH 7.4) with 2% HFIP to a final peptide concentration of 100 μM. The sample was incubated at room temperature under quiescent conditions for 4 h to develop higher-order oligomers. Two dominant mass/charge (m/z) peaks were always present in the mass spectra corresponding to [n]Z+=[1]1+ and [1]2+. […] After incubation at room temperature for 4 h, the distribution shifted toward the higher-order oligomers. […] Once the presence of higher-order oligomers was confirmed, an inhibitor (either [AC0107], [AC0105], [AC0102], [AC0201] or [AC0202]) was added in a 1:1 peptide (100 μM): inhibitor (100 μM) molar ratio. Subsequent time points were taken to monitor the remodeling properties of the inhibitors.

TDP-43307-319 WT peptide [3] = biological target: T1, TDP-43307-319 WT peptide; test: as above; format: biochemical; conditions: 100 μM peptide
[4] = Homo sapiens, U2OS, normalized to sodium arsenite and vehicle, read-out: maximum stress granule inhibition in cytosol
[5] = 1:1 peptide (100 μM): inhibitor (100 μM), added after 4 h aggregation

Structure (SMILES)	TDP43 granule formation inhibition in cells after arsenite treatment (overall result) [1]	inhibition at 10 µM [1, 4] [%]	oligomer distribution initially after addition of inhibitor to aggregated WT peptide (TDP-43307-319 WT peptide [2]; 1:1, 100 μM each)	remodeling of developed higher-order oligomers and prevention of re-formation (overall) (TDP-43307-319 WT peptide [2])	also measured
CC(=O)Nc1ccc(CNCCc2cccc(Cl)c2)cc1 [AC0101, N-[4-({[2-(3-chlorophenyl)ethyl]amino}methyl)phenyl]acetamide]	positive	44	–	–	inhibition at 5 µM ([1]; Homo sapiens, U2OS, at 5 μM, normalized to sodium arsenite and vehicle, read-out: maximum stress granule inhibition in nucleus): 62.5%
CN(C)Cc1ccc(CNCc2ccc3c(c2)OCCO3)cc1 [AC0102, (2,3-dihydro-1,4-benzodioxin-6-ylmethyl)({4 [(dimethylamino)-methyl]phenyl}methyl)amine]	positive	36.9	shift toward higher-order oligomers	able to remodel the developed higher-order oligomers and prevent the re-formation of these toxically related species	oligomer distribution after 1 h (TDP-43307-319 WT peptide [2]; 1:1, 100 μM each, 1 h after addition): remnants of higher-order oligomers are present; oligomer distribution at later time points (TDP-43307-319 WT peptide [2]; 1:1, 100 μM each, later time points): composed primarily of monomer and dimer; rate of redistribution relative to the other inhibitors (TDP-43307-319 WT peptide [2]): slower rate; inhibition at 10 µM ([1]; Homo sapiens, U2OS, normalized to sodium arsenite and vehicle, read-out: maximum stress granule inhibition in nucleus): 27.7%
CN(C)C(=O)C(c1ccccc1)N1CCN(c2ccc(O)cc2)CC1 (stereo not shown) [AC0103, 2-[4-(4-hydroxyphenyl)piperazin-1-yl]-N,N-dimethyl-2 phenylacetamide]	positive	47.2	–	–	–
N#Cc1cccc(CNCc2ccc(CN3CCOCC3)cc2)c1 [AC0104, 3-[({[4-(morpholin-4 ylmethyl)phenyl]methyl}amino)methyl]benzonitrile]	mildly active	–	–	–	–
N#Cc1ccc(CNCc2ccc(CN3CCCC3)cc2)cc1 [AC0105, 4-[({[4-(pyrrolidin-1 ylmethyl)phenyl]methyl}amino)methyl]benzonitrile]	mildly active	–	immediate dissociation of higher-order oligomers into monomer and dimer	able to remodel the developed higher-order oligomers and prevent the re-formation of these toxically related species	oligomer distribution a week after single treatment (TDP-43307-319 WT peptide [2]; 1:1, 100 μM each): maintained for a week
N#Cc1ccc(CNCc2cccc(CN3CCCC3)c2)cc1 [AC0107, 4-[({[3-(pyrrolidin-1-ylmethyl)phenyl]methyl}amino)methyl]benzonitrile]	–	–	initial increase in the number of higher-order oligomers	able to remodel the developed higher-order oligomers and prevent the re-formation of these toxically related species	time by which redistribution to mostly monomer and dimer is seen (TDP-43307-319 WT peptide [2]; 1:1, 100 μM each): ≥ 3 h; complexation between WT peptide and molecule in mass spectra (TDP-43307-319 WT peptide [2]; [5]): no complexation; level of aggregation (signal-to-noise ratio, baseline, [1]1+ peak) after addition of inhibitor (TDP-43307-319 WT peptide [2]; [5]): level of aggregation was reduced
CC(C)C(NCc1ccccc1)c1cccc(C=O)c1 (stereo not shown) [AC0201, 3-[1-(benzylamino)-2-methylpropyl]benzaldehyde]	–	–	immediately pushed the bulk of the distribution back to monomer, dimer, and trimer	successfully redistributed the oligomers to monomer and was able to prevent the re-formation of higher-order oligomers	redistribution of oligomers at 10:1 peptide:inhibitor molar ratio (TDP-43307-319 WT peptide [3]; 10 μM inhibitor): takes a longer time to dissociate oligomers to mostly monomer; also recorded: very effective inhibitor; also recorded: effective; redistribution of oligomers at 4:1 peptide:inhibitor molar ratio (TDP-43307-319 WT peptide [3]; 25 μM inhibitor): effective at redistributing and maintaining the population of lower-order oligomers; redistribution of oligomers at 2:1 peptide:inhibitor molar ratio (TDP-43307-319 WT peptide [3]; 50 μM inhibitor): effective at redistributing and maintaining the population of lower-order oligomers; oligomer distribution at 3-24 h (TDP-43307-319 WT peptide [2]; 1:1, 100 μM each, 3-24 h after addition): dominated by monomer and dimer; oligomer distribution a week after single treatment (TDP-43307-319 WT peptide [2]; 1:1, 100 μM each): dominate monomer peak was observed; rate of redistribution relative to the other inhibitors (TDP-43307-319 WT peptide [2]): fastest and most efficient redistribution
